The text below walks through data of US20030050307A1, “Novel indole derivatives” (H. Lundbeck A/S, priority 1999, published 2003).

Where a name gives a salt, the structure may show the parent alone.

The target of data set [1] is T1, cloned human 5-HT1A-receptors (Homo sapiens, UniProt P08908).
T1 construct: expressed in transfected cells; host or cells: HeLa cells (HA7)
T1 sequence (P08908 1-422): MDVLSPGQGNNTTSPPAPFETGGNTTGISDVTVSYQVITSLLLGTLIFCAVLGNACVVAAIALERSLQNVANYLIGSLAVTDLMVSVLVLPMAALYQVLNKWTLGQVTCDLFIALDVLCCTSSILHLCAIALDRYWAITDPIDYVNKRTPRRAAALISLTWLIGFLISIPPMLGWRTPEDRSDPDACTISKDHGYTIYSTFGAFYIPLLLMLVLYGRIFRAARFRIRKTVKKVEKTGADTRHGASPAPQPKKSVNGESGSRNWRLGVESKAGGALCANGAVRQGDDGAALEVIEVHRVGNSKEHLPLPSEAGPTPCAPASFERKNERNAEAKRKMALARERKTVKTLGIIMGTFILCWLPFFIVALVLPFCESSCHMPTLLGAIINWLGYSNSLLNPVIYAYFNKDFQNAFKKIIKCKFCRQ
Nature of the data set: Inhibition of 3H-5-CT binding to human 5-HT1A receptors. To be noted: transfected HeLa cells (HA7), 15 minutes at 37° C., pH 7.7; for inhibition at 0.05 µM: at 50 nM. On the procedure: The affinity of the compounds of the invention to 5-HT1A receptors was determined by measuring the inhibition of binding of a radioactive ligand at 5-HT1A-receptors as described in the following test:
Inhibition of ^3H-5-CT Binding to Human 5-HT1A Receptors.
By this method, the inhibition by drugs of the binding of the 5-HT1A-agonist ^3H-5-carboxamido tryptamine (^3H-5-CT) to cloned human 5-HT1A-receptors stably expressed in transfected HeLa cells (HA7) (Fargin, A. et al. J. Biol. Chem. 1989, 264, 14848) is determined in vitro. The assay was performed as a modification of the method described by Harrington, M. A. et al. J. Pharmacol. Exp. Ther. 1994, 268, 1098. Human 5-HT1A-receptors (40 μg of cell homogenate) were incubated for 15 minutes at 37° C. in 50 mM Tris buffer at pH 7.7 in the presence of ^3H-5-CT. Non-specific binding was determined by including 10 μM of metergoline. The reaction was terminated by rapid filtration through Unifilter GF/B filters on a Tomtec Cell Harvester. Filters were counted in a Packard Top Counter.

Data set [2] deals with T2, human cloned dopamine D4.2-receptors (Homo sapiens, UniProt P21917, DEL265-296).
T2 construct: expressed in transfected cells; host or cells: CHO cells
T2 sequence (P21917 with tags, fused parts or gaps DEL265-296): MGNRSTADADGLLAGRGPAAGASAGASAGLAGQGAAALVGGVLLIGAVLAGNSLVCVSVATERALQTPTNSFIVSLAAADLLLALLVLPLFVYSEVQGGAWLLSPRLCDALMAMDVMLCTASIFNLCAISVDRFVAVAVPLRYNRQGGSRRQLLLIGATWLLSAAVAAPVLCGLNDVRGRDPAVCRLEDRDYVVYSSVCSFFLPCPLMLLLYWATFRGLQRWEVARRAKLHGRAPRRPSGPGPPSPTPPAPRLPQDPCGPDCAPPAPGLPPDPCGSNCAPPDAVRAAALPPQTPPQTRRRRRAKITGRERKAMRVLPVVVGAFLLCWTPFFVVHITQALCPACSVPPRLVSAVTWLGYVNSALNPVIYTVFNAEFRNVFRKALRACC
Nature of the data set: Inhibition of the binding of 3H-YM-09151-2 to human dopamine D4 receptors. The settings on record: [3H]YM-09151-2 0.06 nM; for IC50: membranes of CHO-cells expressing human D4.2; for inhibition at 0.1 µM: at 100 nM, CHO-cell membranes, human D4.2. On the procedure:
Inhibition of the Binding of ^3H-YM-09151-2 to Human Dopamine D4 Receptors
By this method, the inhibition by drugs of the binding of [^3H]YM-09151-2 (0.06 nM) to membranes of human cloned dopamine D4.2-receptors expressed in CHO-cells is determined in vitro. Method modified from NEN Life Science Products, Inc., technical data certificate PC2533-10/96.

Usually melting point stands for the temperature of the solid-liquid transition. The term IC50 denotes the concentration that gives 50% inhibition. A high value points to weaker potency. Turning to `Clc1ccccc1OCCCN1CCN(c2cccc3[nH]ccc23)CC1` [Compound 1, 4-{4-[3-(2-Chloro-phenoxy)-propyl]-piperazin-1-yl}-1H-indole], the melting point lay in the range of 189 to 199 °C. The compound further registered an IC50 in data set [1] of 12 nM. The same compound gave an IC50 in data set [2] of 92 nM.

`Clc1ccc(SCCN2CCN(c3cccc4[nH]ccc34)CC2)cc1Cl` (as salt: oxalate) [Compound 3c, 4-{4-[2-(3,4-Dichloro-phenylsulfanyl)-ethyl]-piperazin-1-yl}-1H-indole] registered a melting point of 140 to 141 °C. The same measure, in the same setting: to `Brc1ccccc1OCCCN1CCN(c2cccc3[nH]ccc23)CC1` (as salt: oxalate) [Compound 2c, 4-{4-[3-(2-Bromo-phenoxy)-propyl]-piperazin-1-yl}-1H-indole] belongs 206 to 208 °C; to `Cc1cccc(Cl)c1SCCCCN1CCN(c2cccc3[nH]ccc23)CC1` (as salt: oxalate) [Compound 2e, 4-{4-[4-(2-Chloro-6-methyl-phenylsulfanyl)-butyl]-piperazin-1-yl}-1H-indole], 199 to 210 °C. Still for that read-out and setting: to `Brc1ccccc1SCCCN1CCN(c2cccc3[nH]ccc23)CC1` (as salt: oxalate) [Compound 2b, 4-(4-[3-(2-Bromo-phenylsulfanyl)-propyl]-piperazin-1-yl}-1H-indole] belongs 163 to 166 °C. Same read-out and setting: to `Fc1ccc(OCCCCN2CCN(c3cccc4[nH]ccc34)CC2)c(Br)c1` (as salt: oxalate) [Compound 2d, 4-{4-[4-(2-Bromo-4-fluoro-phenoxy)-butyl]-piperazin-1-yl}-1H-indole] belongs 218 to 220 °C; to `Clc1cccc(Cl)c1SCCN1CCN(c2cccc3[nH]ccc23)CC1` (as salt: oxalate) [Compound 3b, 4-(4-[2-(2,6-Dichloro-phenylsulfanyl)-ethyl]-piperazin-1-yl)-1H-indole], 130 to 133 °C (dec.). In the case of `Brc1ccccc1SCCCN1CCN(c2cccc3[nH]ccc23)CC1` [Compound 2b, 4-(4-[3-(2-Bromo-phenylsulfanyl)-propyl]-piperazin-1-yl}-1H-indole], the values for the IC50 in data set [1] and in data set [2] were 2.7 nM and 1.2 nM, respectively. `CCC(=O)c1cc(F)c(OCCCN2CCN(c3cccc4[nH]ccc34)CC2)c(F)c1` [Compound 4n, 1-(3,5-Difluoro-4-{3-[4-(1H-indol-4-yl)-piperazin-1-yl]-propoxy}-phenyl)-propan-1-one]: the figures for the IC50 in data set [1] and in data set [2] were 0.72 nM and 230 nM, respectively. A word on the inhibition: it is the share of the control response that was lost under treatment. Read a low inhibition as little suppression. For the compound `Cc1cccc(C)c1SCCCCN1CCN(c2cccc3[nH]ccc23)CC1` [Compound 5ab, 4-{4-[4-(2,6-Dimethyl-phenylsulfanyl)-butyl]-piperazin-1-yl}-1H-indole], the inhibition at 0.05 µM in data set [1] stood at 83%. The same compound registered an inhibition at 0.1 µM in data set [2] of 95%.

In data set [1], `Cc1ccc(Cl)c(OCCCCN2CCN(c3cccc4[nH]ccc34)CC2)c1` [Compound 5ak, 4-{4-[4-(2-Chloro-5-methyl-phenoxy)-butyl]-piperazin-1-yl}-1H-indole] returned an inhibition at 0.05 µM of 91%. Besides, 0.1 µM produced 93% inhibition in data set [2]. For `Clc1cccc(SCCN2CCN(c3cccc4[nH]ccc34)CC2)c1` [Compound 5am, 4-{4-[2-(3-Chloro-phenylsulfanyl)-ethyl]-piperazin-1-yl}-1H-indole], 0.05 µM produced 93% inhibition in data set [1]. The inhibition at 0.1 µM in data set [2] is 83%. The compound `Clc1ccc(Cl)c(OCCCCN2CCN(c3cccc4[nH]ccc34)CC2)c1` [Compound 5au, 4-{4-[4-(2,5-Dichloro-phenoxy)-butyl]-piperazin-1-yl}-1H-indole] yielded an inhibition at 0.05 µM in data set [1] of 99%. Further, the inhibition at 0.1 µM in data set [2] worked out at 97%. Compound `COc1ccccc1OCCCCN1CCN(c2cccc3[nH]ccc23)CC1` [Compound 5ba, 4-{4-[4-(2-Methoxy-phenoxy)-butyl]-piperazin-1-yl}-1H-indole] registered an inhibition at 0.05 µM in data set [1] of 83%. Also, in data set [2], the inhibition at 0.1 µM worked out at 80%. `Cc1ccc(OCCCCN2CCN(c3cccc4[nH]ccc34)CC2)c(C)c1` [Compound 5ah, 4-{4-[4-(2,4-Dimethyl-phenoxy)-butyl]-piperazin-1-yl}-1H-indole]: the inhibition at 0.05 µM in data set [1] was determined as 86%. The inhibition at 0.1 µM in data set [2] came to 90%.
